Assay results from patent publication US20050215548A1 (Cyclacel Limited, priority 2002, published 2005).
Read-outs that look alike come from different tables or passages of the source.

Tests used:
HDM2 = biological target: T1, HDM2 (Homo sapiens, UniProt Q00987); test: Fluorescence polarisation competitive HDM2 binding assay
T1 construct: Recombinant HDM2 (1.5 μg per well) in TBS-BSA buffer
Procedure, shortened: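 Recombinant HDM2 (1.5 μg/well) was preincubated 5 min at room temperature with serially diluted compound in 50 mM Tris pH 7.4, 150 mM NaCl, 0.1% BSA, 5% DMSO final. Fluorescein-labelled p53 peptide (0.2 μM) was then added for 45 min. Polarisation was read at 485/520 nm and IC50 derived from dose-response curves.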

p53 = p53 reporter gene assay (U2OS-derived luciferase reporter cell line); details: for Fold induction of luciferase activity: compared to basal luciferase activity, 16-h time point, at concentration of maximal induction; for Concentration (test compound concentration at which the p53 induction was maximal): p53 reporter, U2OS-derived cell line
Protocol: A dual assay assessing both cell viability and p53 response was employed. A U2OS-derived cell line stably transfected with a p53 response element and a luciferase reporter gene was created. […] After seeding of cells into 96-well tissue culture plates, treatment with test compounds, and incubation for the desired duration, the cell proliferation reagent WST-1 (Roche Molecular Biochemicals) was used to determine cell viability. The Bright-Glo™ Luciferase Assay System (Promega) was used to measure luciferase activity. The data from the cell viability assay was used to normalise data from the luciferase assay.

H1299 = test: 72-h MTT cytotoxicity assay, H1299; type: cell-based; details: Homo sapiens, NCI-H1299; 72-h MTT; Table 1; read-out: IC50 Anti-proliferative effect on cell line H 1299
Protocol: (§1) The fluorescence polarisation competitive HDM2 binding assay described in Example 3 was used. Furthermore, the anti-proliferative potency of the compounds against three human tumour cell lines with different genetic make-up was also determined. […] The cell lines used were as follows: AGS, gastric adenocarcinoma, wild-type p53; H1299, large cell lung carcinoma, p53 null, low HDM2; SJSA-1, primitive multipotential bone sarcoma, wild-type p53, overexpressed HDM2.
(§2) Representative bisarylsulfonamide compounds were tested on a panel of transformed and non-transformed human cell lines, using a standard 72-h MTT cytotoxicity assay [Haselsberger K et al, ibid].

SJSA-1 = test: 72-h MTT cytotoxicity assay, SJSA-1; type: cell-based; details: Homo sapiens, SJSA-1; 72-h MTT; Table 1; read-out: IC50 Anti-proliferative effect on cell line SJSA-1
Protocol: as §1, §2

AGS = test: 72-h MTT cytotoxicity assay, AGS; type: cell-based; details: Homo sapiens, 72-h MTT, Table 1, read-out: IC50 Anti-proliferative effect on cell line AGS
Protocol: as §1, §2

[1] = system: E2F transcription factors; test: E2F reporter gene assay (A549-derived luciferase reporter cell line); type: cell-based; details: Homo sapiens; after 3-h treatment with test compounds; read-out: IC50 E2F reporter, Non-synchronised cells
Protocol: A similar system to the p53 reporter assay described above was used, with the exception that it was designed to be responsive to E2F transcription factors rather than p53. An A549-derived cell line stably transfected with an E2F response element and a luciferase reporter gene was created. The genetic expression cassette construct used was from Clontech (Mercury™ Cell Cycle Profiling System). Assays were carried out as described above.
Representative bisarylsulfonamides were tested in the E2F gene reporter assay described in Example 6.

[2] = fluorescence polarisation assay, Table 3, read-out: In vitro competitive HDM2 binding assay IC50
[3] = fluorescence polarisation format, Table 1, read-out: IC50 In vitro competitive HDM2 binding assay

T1 sequence (Q00987 whole entry): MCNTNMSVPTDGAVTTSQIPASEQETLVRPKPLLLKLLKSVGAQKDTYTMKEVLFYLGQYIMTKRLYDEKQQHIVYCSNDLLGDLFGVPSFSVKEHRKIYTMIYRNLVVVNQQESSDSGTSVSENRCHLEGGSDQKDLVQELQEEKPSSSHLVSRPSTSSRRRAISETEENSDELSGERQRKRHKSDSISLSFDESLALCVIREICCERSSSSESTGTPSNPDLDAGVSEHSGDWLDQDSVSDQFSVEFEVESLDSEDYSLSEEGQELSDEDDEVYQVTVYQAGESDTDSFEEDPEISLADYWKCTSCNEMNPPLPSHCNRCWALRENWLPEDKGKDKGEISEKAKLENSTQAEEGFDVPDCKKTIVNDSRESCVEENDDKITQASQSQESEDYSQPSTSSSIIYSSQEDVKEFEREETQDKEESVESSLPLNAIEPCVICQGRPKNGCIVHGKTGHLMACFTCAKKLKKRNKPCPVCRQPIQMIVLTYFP

Row | Compound | IC50 (HDM2; [2]) | IC50 (HDM2; [3]) | Fold induction of luciferase activity (p53) | IC50 [1] | Concentration (test compound concentration at which the p53 induction was maximal) (p53) | IC50 (H1299) | IC50 (SJSA-1) | IC50 (AGS)
1 | O=[N+]([O-])c1cc(S(=O)(=O)Nc2ccc(Cl)cc2)ccc1Cl [Compound 38, 4-Chloro-N-(4-chlorophenyl)-3-nitro-benzenesulfonamide] | 231 ± 13 µM | 232 ± 13 µM | 4 fold | – | 13 µM | 11 ± 4 µM | 22 ± 4 µM | 16 ± 4 µM
2 | O=S(=O)(Nc1cc(C(F)(F)F)cc(C(F)(F)F)c1)c1cnc(Cl)c(Br)c1 [Compound 42, 5-Bromo-6-chloropyridine-3-sulfonic acid (3,5-bis-trifluoromethylphenyl)amide] | – | 278 ± 50 µM | – | – | – | 32 ± 7 µM | 65 ± 18 µM | 30 ± 7 µM
3 | Cn1ncc(-c2ccc(S(=O)(=O)Nc3cc(C(F)(F)F)cc(C(F)(F)F)c3)s2)c1C(F)(F)F [Compound 43, 5-(1-Methyl-5-trifluoromethyl-1H-pyrazol-4-yl)-thiophene-2-sulfonic acid (3,5-bis-trifluoromethylphenyl)amide] | – | 133 ± 11 µM | – | – | – | 18 ± 0.8 µM | 33.7 ± 0.3 µM | 20.9 ± 1 µM
4 | O=[N+]([O-])c1cc(S(=O)(=O)Nc2cc(Cl)cc(Cl)c2)ccc1Cl [Compound 47, 4-Chloro-N-(3,5-dichlorophenyl)-3-nitro-benzenesulfonamide] | – | 234 ± 37 µM | – | – | – | 18 ± 8 µM | 37 ± 6 µM | 23 ± 2 µM
5 | O=[N+]([O-])c1cc(S(=O)(=O)NCc2cc(F)cc(F)c2)sc1Cl [Compound 55, 5-Chloro-4-nitro-thiophene-2-sulfonic acid 3,5-difluoro-benzylamide] | 27 ± 10.1 µM | 27 ± 10.1 µM | 53 fold | – | 10 µM | 9.3 ± 2.5 µM | 13.3 ± 2.1 µM | 7 µM
6 | CC(NS(=O)(=O)c1cc([N+](=O)[O-])c(Cl)s1)c1ccc(F)cc1 (centres unmarked) [Compound 57, 5-Chloro-4-nitro-thiophene-2-sulfonic acid [1-(4-fluoro-phenyl)-ethyl]-amide] | 31.1 ± 5.6 µM | 31.1 ± 5.6 µM | 25 fold | – | 7 µM | 2.7 ± 0.6 µM | 5.9 ± 0.2 µM | 1.7 ± 0.3 µM
7 | O=[N+]([O-])c1cc(S(=O)(=O)NCCc2c[nH]c3cc(Cl)ccc23)sc1Cl [Compound 60, 5-Chloro-4-nitro-thiophene-2-sulfonic acid [2-(6-chloro-1H-indol-3-yl)-ethyl]-amide] | 29 ± 6 µM | 29 ± 6 µM | 48 fold | 29.2 ± 6.8 µM | 7.5 µM | – | – | –
8 | Cc1ccc(NS(=O)(=O)c2cc([N+](=O)[O-])c(Cl)s2)cc1 [Compound 63, 5-Chloro-4-nitro-thiophene-2-sulfonic acid p-tolylamide] | 35 ± 8 µM | 35 ± 8 µM | 95 fold | – | 6.4 µM | 3.9 ± 0.9 µM | 5.7 ± 1.6 µM | 1.7 ± 0.6 µM
9 | O=[N+]([O-])c1cc(S(=O)(=O)NCCc2c[nH]c3ccc(Cl)cc23)ccc1Cl [Compound 81, 4-Chloro-N-[2-(5-chloro-1H-indol-3-yl)-ethyl]-3-nitro-benzenesulfonamide] | – | 311 ± 21 µM | – | – | – | 39 ± 6 µM | 51 ± 1 µM | 29 ± 2 µM
10 | Cc1ccc(S(=O)(=O)NCCc2c[nH]c3ccc(Cl)cc23)cc1[N+](=O)[O-] [Compound 82, N-[2-(5-Chloro-1H-indol-3-yl)-ethyl]-4-methyl-3-nitro-benzenesulfonamide] | – | 338 ± 111 µM | – | – | – | 49 µM | 65 ± 4 µM | 50 µM
11 | O=[N+]([O-])c1ccc(NS(=O)(=O)c2cc(C(F)(F)F)cc(C(F)(F)F)c2)cc1Cl [Compound 105, N-(3-Chloro-4-nitro-phenyl)-3,5-bis-trifluoromethyl-benzenesulfonamide] | – | 153 ± 18 µM | – | – | – | 25 ± 1 µM | 37 ± 18 µM | 24 ± 3 µM

The next compounds have a lower IC50 (HDM2; [3]) than those just listed; values first:

Row | IC50 (HDM2; [2]) | IC50 (HDM2; [3]) | Fold induction of luciferase activity (p53) | IC50 [1] | Compound | Concentration (test compound concentration at which the p53 induction was maximal) (p53) | IC50 (H1299) | IC50 (SJSA-1) | IC50 (AGS)
12 | – | 25.4 ± 0.2 µM | – | – | O=[N+]([O-])c1cc(S(=O)(=O)Nc2cc(C(F)(F)F)cc(C(F)(F)F)c2)sc1Cl [Compound 44, 5-Chloro-4-nitrothiophene-2-sulfonic acid (3,5-bis-trifluoromethyl-phenyl)-amide] | – | 14 ± 2 µM | 19 ± 3 µM | 10 µM
13 | 16 ± 3.7 µM | 16 ± 3.7 µM | 67 fold | – | O=[N+]([O-])c1cc(S(=O)(=O)NCc2ccc(F)cc2)sc1Cl [Compound 45, 5-Chloro-4-nitrothiophene-2-sulfonic acid 4-fluorobenzylamide] | 15 µM | 11.1 ± 3.1 µM | 11.5 ± 3 µM | 7.5 ± 4.4 µM
14 | 7.3 ± 0.6 µM | 7.3 ± 0.6 µM | 21 fold | – | CN(c1ccc(C(F)(F)F)cc1)S(=O)(=O)c1cc([N+](=O)[O-])c(Cl)s1 [Compound 50, 5-Chloro-4-nitrothiophene-2-sulfonic acid methyl-(4-trifluoromethylphenyl)amide] | 39 µM | 34.7 ± 6.1 µM | 35.4 ± 11.5 µM | 30.3 ± 0.3 µM
15 | – | 5.9 ± 0.7 µM | – | – | CN(c1ccc(Cl)cc1)S(=O)(=O)c1cc([N+](=O)[O-])c(Cl)s1 [Compound 51, 5-Chloro-4-nitrothiophene-2-sulfonic acid (4-chloro-phenyl)-methylamide] | – | 17.4 ± 3.8 µM | 15.6 µM | 11.3 ± 1 µM
16 | – | 10.7 ± 0.2 µM | – | – | CN(Cc1ccc(C(F)(F)F)cc1)S(=O)(=O)c1cc([N+](=O)[O-])c(Cl)s1 [Compound 52, 5-Chloro-4-nitrothiophene-2-sulfonic acid methyl-(4-trifluoromethylbenzyl)amide] | – | 28.5 ± 1.9 µM | 27.5 ± 1.3 µM | 23.3 ± 1.4 µM
17 | 20.2 ± 1.3 µM | 20.2 ± 1.3 µM | 90 fold | – | O=[N+]([O-])c1cc(S(=O)(=O)NCc2cc(Cl)cc(Cl)c2)sc1Cl [Compound 54, 5-Chloro-4-nitro-thiophene-2-sulfonic acid 3,5-dichloro-benzylamide] | 10 µM | 9.7 ± 2.9 µM | 12 ± 0.4 µM | 5.6 ± 0.2 µM
18 | – | 24.8 ± 5.4 µM | – | – | O=[N+]([O-])c1cc(S(=O)(=O)NCc2ccc(Cl)cc2)sc1Cl [Compound 56, 5-Chloro-4-nitro-thiophene-2-sulfonic acid 4-chloro-benzylamide] | – | 6.3 ± 1.9 µM | 9.3 ± 2.7 µM | 4.3 ± 0.6 µM
19 | 7.4 ± 1 µM | 7.4 ± 1 µM | 74 fold | – | O=[N+]([O-])c1cc(S(=O)(=O)N(Cc2ccccc2)c2ccc(Cl)cc2)sc1Cl [Compound 65, 5-Chloro-4-nitro-thiophene-2-sulfonic acid benzyl-(4-chloro-phenyl)-amide] | 10 µM | 10.8 ± 4.3 µM | 11.1 ± 6.7 µM | 5.2 ± 2.2 µM
20 | 14.7 ± 0.9 µM | 14.7 ± 0.9 µM | 65 fold | – | COc1ccc(N(Cc2ccccc2)S(=O)(=O)c2cc([N+](=O)[O-])c(Cl)s2)cc1 [Compound 66, 5-Chloro-4-nitro-thiophene-2-sulfonic acid benzyl-(4-methoxy-phenyl)-amide] | 4.2 µM | 3.9 ± 0.5 µM | 3.9 ± 1.3 µM | 2.4 ± 0.2 µM
21 | – | 8.5 ± 3.2 µM | – | – | O=[N+]([O-])c1cc(S(=O)(=O)N(Cc2cccc(C(F)(F)F)c2)c2ccc(Cl)cc2)sc1Cl [Compound 67, 5-Chloro-4-nitro-thiophene-2-sulfonic acid (4-chloro-phenyl)-(3-trifluoromethyl-benzyl)-amide] | – | 12 ± 1 µM | 11.8 ± 1.6 µM | 6.7 ± 0.9 µM
22 | – | 3.5 ± 10 µM | – | – | O=[N+]([O-])c1cc(S(=O)(=O)N(Cc2ccc(C(F)(F)F)cc2)Cc2cccc(C(F)(F)F)c2)sc1Cl [Compound 75, 5-Chloro-4-nitro-thiophene-2-sulfonic acid (3-trifluoro-methyl-benzyl)-(4-trifluoromethyl-benzyl)-amide] | – | 16 µM | 18 µM | 9 µM
